Test results from patent US8507547B2, “Anti-fatigue agents and oral compositions containing andrographolide as active ingredient” (Suntory Holdings Limited, priority 2007, dated 2013).

Columns and labels:
Assay type in all cases: in vivo
[1] = Safety of administered andrographolide (1000 mg per kilogram of body weight); conditions: 1000 mg of andrographolide per kilogram of body weight
Protocol: Andrographis paniculata containing andrographolide has conventionally been taken in orally and is considered to be infinitely safe. […] It should be noted, however, that there is a report saying that, when an infusion (0.5 g per mouse) or a water extract (1 g of crude drug per mouse) of Andrographis paniculata was injected into abdominal cavities of two mice, they died within 24 hours (Chuyakudaijiten, First Issue, Vol. 3). […] Accordingly, the andrographolide in the composition of the present invention is an active ingredient that is infinitely safe. Thus the amount of andrographolide to be contained is not particularly limited, as long as the amount is adequate to produce a desired effect and not to be toxic; the amount can be appropriately determined according to targets, pathological condition and the stage of illness, impact on taste (slightly bitter), and other factors.

Sprague Dawley rats = test: Measurement of fatigue substance in blood (creatine kinase activity in blood plasma after forced exercise); conditions: 2 mg per kilogram of body weight orally twice daily, five times in total, before forced exercise stress; FIG. 4
From the text: The fourth test is measurement of an amount of fatigue substance. This is described in detail below in Example 4. The test is to determine the effect of administration of the test substance on the amount of fatigue substance at the time when physical or mental stress is applied. Since the fatigue substances change according to the type, intensity, duration, or the like of fatigue that is applied, they are not clearly defined as an indicator, but creatine kinase in blood can be named as one of the candidate substances. Creatine kinase is an enzyme that catalyzes high-energy phosphoryl group transfer from creatine phosphate to ADP, and is considered to serve physiological functions of consuming creatine phosphate to supply ATP at the time of massive energy consumption, such as twitching of skeletal muscles upon instantaneous short-term exercise, in an in vivo energy system. […] It is therefore said that the level of damage on the muscle can be determined by measuring the creatine kinase activity in blood. […]
Muscle fatigue in a living body was determined using creatine kinase levels in blood as a reference index. […] Blood was taken out from a tale vein immediately after the exercise stress, and creatine kinase activity in blood plasma was measured with a biochemistry automatic analyzer (Model 7070, Hitachi High-Technologies Corporation) using an enzyme method. […]

Balb/c mice = test: Measurement of liver fatigue (serum GOT, GPT, liver TBARS) after water immersion and sleep disturbance; conditions: 8 mg per kilogram of body weight orally once daily during two days of water immersion
Protocol: The second test is measurement of liver fatigue. This is described in detail below in Example 2. […] In a liver of this model, GOT and GPT levels increased, compared with those of a normally-reared group. GOT (glutamic oxalacetic transaminase) and GPT (glutamic pyruvic transaminase), which are enzymes present in hepatic cells, are known to escape into blood when hepatic cells are damaged. Therefore, a level of damage on the liver is determined by measuring GOT and GPT in blood. […] It is inferred that the long-term general fatigue condition caused alteration in liver function, disruption of oxygen reduction system balance, and the like to result in accumulation of lipid peroxide. This is considered to support the fact that this model is an organ fatigue model.
That is to say, since this animal model is also an organ fatigue model, anti-fatigue action against organ fatigue would be confirmed if it is observed that administration of the test substance, for instance, returns a changed organ fatigue marker, such as GOT, GPT, and TBARS mentioned above, to a normal level and reduces change in the organ markers. Such anti-fatigue action is considered to regulate overall activity of internal organs to condition metabolism, thereby being involved in reduction of physical and mental fatigue stress, maintenance of energy, improvement in endurance, and the like.
Effect of andrographolide on fatigue from water immersion and sleep disturbance was examined using a partially modified method of Tanaka et al. (Neuroscience Let. 352, 159-162, 2003). […] Blood serum was separated from the blood, and GOT (glutamic oxalacetic transaminase) and GPT (glutamic pyruvic transaminase) in the blood serum were measured with a small-sized biochemistry automatic analyzer (Model 7070, Hitachi High-Technologies Corporation). Further, levels of lipid peroxide from liver were measured as a level of TBARS (thiobarbituric acid reactive substances). […] Then, the TBARS levels were measured in accordance with the method of Ohkawa et al. Anal. Biochem. 95. […]

C=C1CC[C@@H]2[C@](C)(CO)[C@H](O)CC[C@@]2(C)[C@@H]1C/C=C1/C(=O)OC[C@H]1O [andrographolide]
abnormality after administration [1]: no abnormality was observed | creatine kinase activity in blood plasma (Sprague Dawley rats): decrease in creatine kinase activity was observed | GOT level in the blood serum (Balb/c mice; FIG. 2(A)): prevented from increasing | GPT level in the blood serum (Balb/c mice; FIG. 2(B)): prevented from increasing | liver TBARS level (Balb/c mice; FIG. 2(C)): prevented from increasing
